Test results reported in patent US9555057B2, “Compositions and methods for reducing cutaneous microbiome malodor” (The Research Foundation for The State University of New York, priority 2014, dated 2017).

Tests used:
[1] = pH and solubility of solutions, suspensions and formulae; type: physicochemical; settings: 36 mM (zinc acetate and zinc carbonate also 72 mM)
Staph. haemolyticus = assay: Arginolysis: pH during incubation with arginine; type: cell-based, Staphylococcus haemolyticus; settings: 6.0 mM arginine, 4 hours
Experimental: (§1) Each microorganism was recovered from its frozen state at −70° C. and grown at 37° C. in 10 ml of appropriate and respective culture media for a period between 24 and 48 hours (see Table 1). Incubations were carried out to middle and late exponential stages of bacterial growth under the incubation conditions indicated in Table 1. A 1.5 ml inoculum was transferred therefrom to polypropylene bottles containing 150 ml of the initial growth medium. This was then incubated at 37° C. for 24 to 48 hours. Bacteria were harvested by centrifugation (DuPone, Sorvall, Newtown, Conn.) at 10,000 g and 4° C. for 20 min. The volume of bacterial pellet obtained was between about 2.5 and 3.5 ml. The sediment was then washed with sterile distilled water to remove residual growth medium. This was done by centrifuging the bacterial sediment three times at 1,740 g for 15 min at 4° C. […]

P. avidum = assay: Arginolysis: pH during incubation with arginine; type: cell-based, Propionibacterium avidum; settings: 6.0 mM arginine
Experimental: as §1

[2] = test system: C. striatum, Staph. epidermidis or a 1:1 mixture thereof; settings: zinc acetate, CIL and either arginine or arginine bicarbonate, pH 4.0 to 8.0, 4 hours, no phenylalanine
From the text: The pH of the medium with each of the different zinc salts needed some adjustment, which was done with 1 M HCl or 1 M NaOH depending upon the pH of the stock solutions of each zinc salt employed.

Staph. epidermidis = assay: Arginolysis: pH during incubation with arginine; type: cell-based, Staphylococcus epidermidis; settings: 6.0 mM arginine
Experimental: as §1

[3] = test system: pure cultures of microorganisms resident on human axillary skin; settings: 6.0 mM arginine; Staph. epidermidis, Staph. haemolyticus and P. avidum
Experimental: Pure cultures of the numerically most prominent microorganisms normally resident on human axillary skin (see Table 1) were surveyed for their effects on (i) pH, (ii) Eh, (iii) ability to generate malodor and (iv) ability to generate hydrogen peroxide. Four hour incubation experiments were conducted, in which each of a wide range of carbohydrate and amino acid substrates (see Table 1) were surveyed for malodor production and related changes in pH and Eh thereto.
Each microorganism was recovered from its frozen state at −70° C. and grown at 37° C. in 10 ml of appropriate and respective culture media for a period between 24 and 48 hours (see Table 1). Incubations were carried out to middle and late exponential stages of bacterial growth under the incubation conditions indicated in Table 1. A 1.5 ml inoculum was transferred therefrom to polypropylene bottles containing 150 ml of the initial growth medium. This was then incubated at 37° C. for 24 to 48 hours. Bacteria were harvested by centrifugation (DuPone, Sorvall, Newtown, Conn.) at 10,000 g and 4° C. for 20 min. […] The sediment was then washed with sterile distilled water to remove residual growth medium. This was done by centrifuging the bacterial sediment three times at 1,740 g for 15 min at 4° C.
Each pure culture was pre-incubated at 37° C. at pH 7.0 to exhaust or reduce any stored carbohydrate and other carbon/energy sources acquired during growth in culture.
Both of these electrodes were connected to a second pH meter (pH M26 Radiometer Copenhagen NV, Denmark) and used here as a millivoltmeter. For the Eh measurements, when the Eh electrode was immersed in an incubation mixture, each Eh reading was recorded after allowing several seconds for each reading to stabilize. The Eh value was related to that of the hydrogen electrode by adding to each reading the difference between the E0 value for the Red Rod reference element-mercury and hydrogen electrodes—i.e. 270 my at 25° C.
At each time point, the odor was determined organoleptically by immersing a solid glass rod into each incubation mixture, stirring gently 3 times and then removing and carefully smelling the rod after 5 seconds. The intensity of the odor was assessed on a 0 to 4 numerical scale (0—no odor, 1—mild odor, 2—moderate odor, 3—strong odor, and 4—very strong odor).

Structure (SMILES)	pH of stock solution in de-ionized water [1]	pH reached during arginolysis (Staph. haemolyticus)	pH rise above the level with Staph. epidermidis (P. avidum)	Sulfurous odor and Eh [2]	pH of the incubation mixture (Staph. epidermidis; end of the 4 hours of incubation)	pH of the incubation mixture (Staph. epidermidis; start pH 7.0, within the first 15 min)	Odor during arginolysis [3]
[Cl-].[Cl-].[Zn+2] [Zinc chloride]	6.7	–	–	–	–	–	–
N=C(N)NCCC[C@H](N)C(=O)O [arginine]	–	8.2	about 0.3 pH units	No sulfurous odor nor corresponding decrease in the Eh	7.7	7.4	No odor of significance
